Measured values reported in the supplement of paper PMC10307832.

Legend:
Assay in all cases: relative viability (nuclei count vs DMSO), 5 days (fraction); higher = more cells survive
Sulindac + Pictilisib = compound: CC1=C(CC(=O)O)c2cc(F)ccc2/C1=C\c1ccc([S+](C)[O-])cc1 [Sulindac] + CS(=O)(=O)N1CCN(Cc2cc3nc(-c4cccc5[nH]ncc45)nc(N4CCOCC4)c3s2)CC1 [Pictilisib] (partner 1 µM)
Outline: (§1)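 Lung cancer cell lines were pin-tool dosed in 1536-well plates on the day after seeding, with either a lone drug or a fixed anchor-drug dose plus five library-drug doses (not always all listed) in √10 steps. Nuclei were counted on 4× images after 5 days. Relative viability is the ratio of treated-well to vehicle-well nuclei counts, with each value a median of duplicate plates.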

Sulindac + Decitabine = compound: CC1=C(CC(=O)O)c2cc(F)ccc2/C1=C\c1ccc([S+](C)[O-])cc1 [Sulindac] + Nc1ncn([C@H]2C[C@H](O)[C@@H](CO)O2)c(=O)n1 [Decitabine] (partner 2 µM)
Outline: as §1

[1] = compound: CN[C@@H]1C[C@H]2O[C@@](C)([C@@H]1OC)n1c3ccccc3c3c4c(c5c6ccccc6n2c5c31)C(=O)NC4 [Staurosporine] + CS(=O)(=O)N1CCN(Cc2cc3nc(-c4cccc5[nH]ncc45)nc(N4CCOCC4)c3s2)CC1 [Pictilisib] (partner 1 µM)
Outline: as §1

[2] = compound: O=c1[nH]cc(F)c(=O)[nH]1 [5-Fluorouracil] + CS(=O)(=O)N1CCN(Cc2cc3nc(-c4cccc5[nH]ncc45)nc(N4CCOCC4)c3s2)CC1 [Pictilisib] (partner 1 µM)
Outline: as §1

Row | Cell Line | relative viability (Sulindac + Pictilisib; first compound 0.08 µM) | relative viability (Sulindac + Pictilisib; first compound 0.253 µM) | relative viability (Sulindac + Pictilisib; first compound 2.53 µM) | relative viability (Sulindac + Pictilisib; first compound 8 µM) | relative viability (Sulindac + Decitabine; first compound 0.08 µM) | relative viability (Sulindac + Decitabine; first compound 0.253 µM) | relative viability (Sulindac + Decitabine; first compound 0.8 µM) | relative viability (Sulindac + Decitabine; first compound 2.53 µM) | relative viability (Sulindac + Decitabine; first compound 8 µM) | relative viability ([1]; first compound 0.005 µM) | relative viability ([1]; first compound 0.01581 µM) | relative viability ([1]; first compound 0.05 µM) | relative viability ([1]; first compound 0.1581 µM) | relative viability ([1]; first compound 0.5 µM) | relative viability ([2]; first compound 0.02 µM) | relative viability ([2]; first compound 0.2 µM) | relative viability ([2]; first compound 0.6325 µM) | relative viability ([2]; first compound 2 µM) | relative viability (Sulindac + Pictilisib; first compound 0.8 µM)
1 | RERF-LC-KJ | 0.57 | 0.626 | 0.473 | 0.579 | 0.667 | 0.706 | 0.608 | 0.63 | 0.751 | 0.565 | 0.308 | 0.284 | 0.151 | 0.141 | 0.587 | 0.593 | 0.604 | 0.465 | –
2 | NCI-H2126 | 0.46 | 0.498 | 0.497 | 0.479 | 0.623 | 0.627 | 0.543 | 0.553 | 0.549 | 0.496 | 0.309 | 0.342 | 0.278 | 0.286 | 0.504 | 0.354 | 0.305 | 0.306 | 0.462
3 | LU99A | 0.33 | 0.31 | 0.267 | 0.344 | 1.05 | 0.806 | 0.86 | 0.782 | 1.17 | 0.187 | 0.158 | 0.186 | 0.122 | 0.114 | 0.289 | 0.314 | 0.317 | 0.261 | 0.301
4 | BEN | 0.599 | 0.56 | 0.673 | 0.667 | 0.745 | 0.845 | 0.697 | 0.685 | 0.814 | 0.836 | 0.612 | 0.474 | 0.251 | 0.204 | 0.557 | 0.597 | 0.536 | 0.555 | 0.443
5 | NCI-H1666 | – | 0.442 | 0.392 | 0.56 | 0.679 | 0.73 | 0.668 | 0.696 | 0.713 | 0.374 | 0.267 | 0.322 | 0.176 | 0.149 | 0.659 | 0.293 | 0.292 | 0.285 | 0.318
